Assay results taken from PubChem BioAssay AID1259407 (Chemical Carcinogenesis Research Information System (CCRIS), 2018).
Calls of active or inactive are those of the source. How the calls were made is not given here.

System: CCRIS mutagenicity, Ames/micronucleus/aberration tests
Experiment: CCRIS mutagenicity studies
[1] = Test System: AMES SALMONELLA TYPHIMURIUM, Strain/Indicator: TA98, Metabolic Activation: NONE, Method: STANDARD PLATE
[2] = Test System: AMES SALMONELLA TYPHIMURIUM, Strain/Indicator: TA100, Metabolic Activation: NONE, Method: STANDARD PLATE
[3] = Test System: AMES SALMONELLA TYPHIMURIUM, Strain/Indicator: TA1535, Metabolic Activation: NONE, Method: STANDARD PLATE
[4] = Test System: MOUSE LYMPHOMA, Strain/Indicator: L5178Y (TK+/TK-), Metabolic Activation: RAT, LIVER, S-9, AROCLOR 1254, Method: SUSPENSION/PLATE
[5] = Test System: AMES SALMONELLA TYPHIMURIUM, Strain/Indicator: TA98, Metabolic Activation: NONE, Method: PREINCUBATION

Measured: mutagenic call

C[CH2][Ge]([Cl])([CH2]C)[CH2]C
inactive: Test System: AMES SALMONELLA TYPHIMURIUM, Strain/Indicator: TA98, Metabolic Activation: HAMSTER, LIVER, S-9, AROCLOR 1254 (10%), Method: STANDARD PLATE inactive; negative | [1] inactive; negative | Test System: AMES SALMONELLA TYPHIMURIUM, Strain/Indicator: TA98, Metabolic Activation: RAT, LIVER, S-9, AROCLOR 1254 (10%), Method: STANDARD PLATE inactive; negative | Test System: AMES SALMONELLA TYPHIMURIUM, Strain/Indicator: TA100, Metabolic Activation: HAMSTER, LIVER, S-9, AROCLOR 1254 (10%), Method: STANDARD PLATE inactive; negative | [2] inactive; negative | Test System: AMES SALMONELLA TYPHIMURIUM, Strain/Indicator: TA100, Metabolic Activation: RAT, LIVER, S-9, AROCLOR 1254 (10%), Method: STANDARD PLATE inactive; negative | Test System: AMES SALMONELLA TYPHIMURIUM, Strain/Indicator: TA1535, Metabolic Activation: HAMSTER, LIVER, S-9, AROCLOR 1254 (10%), Method: STANDARD PLATE inactive; negative | [3] inactive; negative | Test System: AMES SALMONELLA TYPHIMURIUM, Strain/Indicator: TA1535, Metabolic Activation: RAT, LIVER, S-9, AROCLOR 1254 (10%), Method: STANDARD PLATE inactive; negative | Test System: AMES SALMONELLA TYPHIMURIUM, Strain/Indicator: TA1537, Metabolic Activation: HAMSTER, LIVER, S-9, AROCLOR 1254 (10%), Method: STANDARD PLATE inactive; negative | Test System: AMES SALMONELLA TYPHIMURIUM, Strain/Indicator: TA1537, Metabolic Activation: NONE, Method: STANDARD PLATE inactive; negative | Test System: AMES SALMONELLA TYPHIMURIUM, Strain/Indicator: TA1537, Metabolic Activation: RAT, LIVER, S-9, AROCLOR 1254 (10%), Method: STANDARD PLATE inactive; negative | Test System: AMES SALMONELLA TYPHIMURIUM, Strain/Indicator: TA1538, Metabolic Activation: HAMSTER, LIVER, S-9, AROCLOR 1254 (10%), Method: STANDARD PLATE inactive; negative | Test System: AMES SALMONELLA TYPHIMURIUM, Strain/Indicator: TA1538, Metabolic Activation: NONE, Method: STANDARD PLATE inactive; negative | Test System: AMES SALMONELLA TYPHIMURIUM, Strain/Indicator: TA1538, Metabolic Activation: RAT, LIVER, S-9, AROCLOR 1254 (10%), Method: STANDARD PLATE inactive; negative | Test System: MOUSE LYMPHOMA, Strain/Indicator: L5178Y (TK+/TK-), Metabolic Activation: NONE, Method: SUSPENSION/PLATE inactive; negative. reevaluation of results: inconclusive | [4] inactive; negative. reevaluation of results: negative

[O]=[Mo](=[O])=[O]
active: [4] active; positive. reevaluation of results: positive
inactive: Test System: AMES SALMONELLA TYPHIMURIUM, Strain/Indicator: TA97, Metabolic Activation: HAMSTER, LIVER, S-9, AROCLOR 1254 (10%), Method: PREINCUBATION inactive; negative | Test System: AMES SALMONELLA TYPHIMURIUM, Strain/Indicator: TA97, Metabolic Activation: HAMSTER, LIVER, S-9, AROCLOR 1254 (30%), Method: PREINCUBATION inactive; negative | Test System: AMES SALMONELLA TYPHIMURIUM, Strain/Indicator: TA97, Metabolic Activation: NONE, Method: PREINCUBATION inactive; negative | Test System: AMES SALMONELLA TYPHIMURIUM, Strain/Indicator: TA97, Metabolic Activation: RAT, LIVER, S-9, AROCLOR 1254 (10%), Method: PREINCUBATION inactive; negative | Test System: AMES SALMONELLA TYPHIMURIUM, Strain/Indicator: TA97, Metabolic Activation: RAT, LIVER, S-9, AROCLOR 1254 (30%), Method: PREINCUBATION inactive; negative | Test System: AMES SALMONELLA TYPHIMURIUM, Strain/Indicator: TA98, Metabolic Activation: HAMSTER, LIVER, S-9, AROCLOR 1254 (10 OR 30%), Method: PREINCUBATION inactive; negative | [5] inactive; negative | Test System: AMES SALMONELLA TYPHIMURIUM, Strain/Indicator: TA98, Metabolic Activation: RAT, LIVER, S-9, AROCLOR 1254 (10 OR 30%), Method: PREINCUBATION inactive; negative | Test System: AMES SALMONELLA TYPHIMURIUM, Strain/Indicator: TA100, Metabolic Activation: HAMSTER, LIVER, S-9, AROCLOR 1254 (10% OR 30%), Method: PREINCUBATION inactive; negative | Test System: AMES SALMONELLA TYPHIMURIUM, Strain/Indicator: TA100, Metabolic Activation: NONE, Method: PREINCUBATION inactive; negative | Test System: AMES SALMONELLA TYPHIMURIUM, Strain/Indicator: TA100, Metabolic Activation: RAT, LIVER, S-9, AROCLOR 1254 (10% OR 30%), Method: PREINCUBATION inactive; negative | Test System: AMES SALMONELLA TYPHIMURIUM, Strain/Indicator: TA1535, Metabolic Activation: HAMSTER, LIVER, S-9, AROCLOR 1254 (10%), Method: PREINCUBATION inactive; negative | Test System: AMES SALMONELLA TYPHIMURIUM, Strain/Indicator: TA1535, Metabolic Activation: HAMSTER, LIVER, S-9, AROCLOR 1254 (30%), Method: PREINCUBATION inactive; negative | Test System: AMES SALMONELLA TYPHIMURIUM, Strain/Indicator: TA1535, Metabolic Activation: NONE, Method: PREINCUBATION inactive; negative | Test System: AMES SALMONELLA TYPHIMURIUM, Strain/Indicator: TA1535, Metabolic Activation: RAT, LIVER, S-9, AROCLOR 1254 (10%), Method: PREINCUBATION inactive; negative | Test System: AMES SALMONELLA TYPHIMURIUM, Strain/Indicator: TA1535, Metabolic Activation: RAT, LIVER, S-9, AROCLOR 1254 (30%), Method: PREINCUBATION inactive; negative | Test System: AMES SALMONELLA TYPHIMURIUM, Strain/Indicator: TA1537, Metabolic Activation: HAMSTER, LIVER, S-9, AROCLOR 1254 (30%), Method: PREINCUBATION inactive; negative | Test System: AMES SALMONELLA TYPHIMURIUM, Strain/Indicator: TA1537, Metabolic Activation: NONE, Method: PREINCUBATION inactive; negative | Test System: AMES SALMONELLA TYPHIMURIUM, Strain/Indicator: TA1537, Metabolic Activation: RAT, LIVER, S-9, AROCLOR 1254 (30%), Method: PREINCUBATION inactive; negative | Test System: Mouse lymphoma, Strain/Indicator: L5178Y (tk+/tk-), Metabolic Activation: None, Method: Suspension/plate inactive; inconclusive (previous evaluation negative)

ONc1ccc(Cl)cc1
inactive: [1] inactive; negative | [2] inactive; negative | [3] inactive; negative | Test System: E. COLI, Strain/Indicator: WP2 UVRA(P), Metabolic Activation: NONE, Method: STANDARD PLATE inactive; negative | Test System: E. COLI, Strain/Indicator: WP2 UVRA, Metabolic Activation: NONE, Method: FLUCTUATION TEST inactive; negative | Test System: E. COLI, Strain/Indicator: WP2 UVRA, Metabolic Activation: NONE, Method: STANDARD PLATE inactive; negative

COC(=O)[C@H]1O[C@H]1c1ccccc1
active: [2] active; positive

OC1c2cccc3ccc4c5ccccc5cc1c4c23 (configuration not stated)
inactive: Test System: AMES SALMONELLA TYPHIMURIUM, Strain/Indicator: TA98, Metabolic Activation: RAT, LIVER, CYTOSOL, KCL, Method: PREINCUBATION inactive; negative | Test System: AMES SALMONELLA TYPHIMURIUM, Strain/Indicator: TA98, Metabolic Activation: RAT, LIVER, PAPS, KCL, Method: PREINCUBATION inactive; negative
active: Test System: AMES SALMONELLA TYPHIMURIUM, Strain/Indicator: TA98, Metabolic Activation: HUMAN, LIVER, CYTOSOL, PAPS, Method: PREINCUBATION active; positive | [5] active; positive | Test System: AMES SALMONELLA TYPHIMURIUM, Strain/Indicator: TA98, Metabolic Activation: RAT, LIVER, CYTOSOL, PAPS, KCL, Method: PREINCUBATION active; positive | Test System: AMES SALMONELLA TYPHIMURIUM, Strain/Indicator: TA98, Metabolic Activation: RAT, LIVER, CYTOSOL, PAPS, Method: PREINCUBATION active; positive | Test System: AMES SALMONELLA TYPHIMURIUM, Strain/Indicator: TA98, Metabolic Activation: RAT, LIVER, S-9, NADPH, Method: PREINCUBATION active; positive
